# Laboratory results from patent US12529066B2, “Plants having increased tolerance to herbicides” (BASF AGRO B.V., priority 2012, dated 2026).
# How the values were obtained:
# [1] = tested on: Chlamydomonas reinhardtii; assay: Selection of Chlamydomonas reinhardtii strains on solid medium containing herbicide; assay type: cell-based; settings: solid medium containing 1×10^−7 M
# [2] = tested on: Chlamydomonas reinhardtii; assay: Dose-response curves of Chlamydomonas reinhardtii wild-type and mutagenized cells (strain 17); settings: mutagenized cells (strain 17) versus wild-type cells
smiles,measurement,setting,value
C#CCN1C(=O)C(F)(F)Oc2cc(F)c(-n3c(=O)n(C)c(=S)n(C)c3=O)cc21 [I.a.35],growth of resistant mutagenized cells on solid medium,[1]; resistant cells (colonies 31 and 32),form colonies
same,growth of susceptible mutagenized cells on solid medium,[1]; susceptible cells,do not grow
same,IC50 of strain 17 compared to Wild-type cells,[2],much lower IC50
